Legend:
[1] = 100 mg/m^2 in a three-week cycle; cited from earlier work
Experimental: Drugs presently in use to combat lung cancers have severe side effects because their toxicity is not sufficiently selective to cancer cells. For example, docetaxel administered at a dose of 100 mg/m^2 in a three-week cycle causes haematological toxicity (86% patients having grade 3 or 4 neutropenia).

[2] = tested on: normal lung cell versus cancerous lung cell; settings: general statement, no reference given; cited from earlier work
Excerpt: IC50 is the chemical concentration that produces 50% cell survival. The selectivity index of a lung cancer drug is a measure of how specific its killing action is to cancer cells. It is the ratio of its IC50 for a normal lung cell to its IC50 for a cancerous lung cell.

[3] = tested on: human NCI-H460 cancer cells xenograft; experiment: Nude mouse xenograft, post-treatment-only, comparison with docetaxel; settings: for Mean tumor volume at week 4: 0.012 mmol/kg i.v. (CB1a 50 mg/kg, docetaxel 10 mg/kg), saline 5,400 mm^3; for Mean tumor volume at week 4 / Mean body weight at week 4 / Mean tumor weight as % of that in saline treated mice: 5 injections per week for 4 weeks; for Body weight course: compared with saline treated mice; for Mean body weight at week 5: data not shown; for Mean tumor weight as % of that in saline treated mice: week 4, sacrificed
MRC-5 normal cells = experiment: Cell plate growth study, photographed; format: cell-based, human; settings: 50 µM CB1a added after 4 days, photographed after 24 hours, 2×10^3 cells at start
Experimental: (§1) NCI-H460 cancer cells were grown on two cell plates (2×10^3 cells at start in each) – after 4 days, CB1a (50 µM) was added to one and not the other. […] This experiment was repeated but with normal cells. MRC-5 normal cells were grown on two cell plates (2×10^3 cells at start in each) – after 4 days, CB1a (50 µM) was added to one and not the other.
(§2) Photos A and B show without and with CB1a (50 µM), on NCI-H460 cancer cells, respectively. Photos C and D show without and with CB1a (50 µM), on MRC-5 normal cells, respectively. Initial cell concentrations on plates were 2×10^3 cells for all; photos were taken after 5 days incubation; where CB1a was applied it was done so at the end of day 4. Comparing A and B: one can note without CB1a there is significant cellular growth, as to be expected from a cancer cell line; with CB1a there is not, presumably because of a CB1a kill action against cancer cells.

NCI-H460 cancer cells [4] = experiment: Cell plate growth study, photographed; format: cell-based, human; settings: 50 µM CB1a added after 4 days, photographed after 24 hours, 2×10^3 cells at start
Experimental: as §1, §2

[5] = tested on: human NCI-H460 cancer cells xenograft; experiment: Nude mouse xenograft, pre-and-post-treatment of CB1a; format: in vivo; settings: 50 mg/kg s.c.
Experimental: Afterwards, the animal test experiments were performed.
Six mice were pre-treated with CB1a (50 mg/kg) 3 times in one week prior to them being subcutaneously xenografted with human tumorigenic NCI-H460 lung cancer cells (0.2 ml; 1×10^6 cells/ml). A control was studied in which saline was used instead of CB1a (6 mice in this control group). The dose of CB1a/saline was continued after the xenograft: 5 times per week for 5 weeks. The CB1a/saline injection point was in the dorsolateral neck area and the xenograft cancer cells were transplanted into the abdominal flank area of the mouse (Figure 5A). The distance between these two points is far (∼4 cm) as compared to the length of the mouse (∼6 cm). This distance tested whether CB1a could effectively travel in the blood stream without being destroyed. […] 36 days after the human lung cancer cells were xenografted on to the mouse – the mean volume of the tumor in the CB1a treated mice was just 19.3% of the tumor in the saline treated mice (Figure 5C); the mean weight of the tumor in CB1a treated mice was just 9% of the tumor in saline treated mice (Figure 5D). In other words, the tumor was ∼80% smaller and ∼90% lighter in CB1a treated mice.

HFL1 cells = experiment: In vitro toxicity to other normal cells; format: cell-based; settings: data not shown
NCI-H460 cancer cells [6] = experiment: Tumor-like spheroid (MCTS) formation, modified hanging drop method; format: cell-based, human; settings: NCI-H460, 5×10^2 cells
Experimental: We used non-adhesive, bacterial culture-grade polystyrene Petri dishes. Approximately 5×10^2 NCI-H460 cancer cells (3×10^4 cells/ml) were deposited as a drop on the inner face of lids to 90 mm Petri dishes. These lids were then placed on their dishes, which were filled with 10 ml phosphate-buffered saline (PBS). A monolayer of NCI-H460 lung cancer cells was then de-attached by 0.25% Trypsin-EDTA. These dishes were then incubated at 37 C in a 5% CO2 incubator. This modified “hanging drop” method causes the cancer cells to grow in a tumor-like aggregation; which is called a MCTS. After 3 days incubation, CB1a was applied in different concentrations (5, 15, 30, 45 and 60 µM) to different plates and a photo was then taken of each plate after 36 hours. This methodology investigated the post-treatment of CB1a, after tumor formation. The pre-treatment effect of CB1a, before tumor formation, was also studied. CB1a was applied in different concentrations (5, 15, 30, 45 and 60 µM) to different plates and left for 30 minutes before the 0.25% Trypsin-EDTA de-attachment step. After this step, the plates were incubated for 3 days and 36 hours before being photographed.

[7] = Pharmacokinetics of CB1a in rat blood by competitive ELISA; format: in vivo; settings: Sprague-Dawley rats, 50 mg/kg i.v., competitive ELISA with 5C5H5 antibody
Excerpt: Using this standard curve, an unknown concentration of CB1a in a test sample can then be found by finding its OD450nm (A/A0) value in an ELISA experiment. […] For our definitive standard curve, we used the one with a dilution rate of 1∶2000 and utilized this dilution rate when assaying test blood samples. We used a primary antibody dilution rate of 1∶5000.
Six […] male Sprague-Dawley rats (230–260 g; sourced from BioLASCO, Yilan, Taiwan) were housed (3 per cage) in a specific pathogen free animal room. The rats were intravenously injected with CB1a peptide (50 mg/kg) and blood samples were then collected from the tail vein of the rats at the following time points: 5, 20, 25, 38.5, 50, 60 and 240 minutes after the CB1a injection (6 samples taken at each of these time points). The blood samples were transferred to heparinized microcentrifuge tubes and centrifuged at 4,000 g for 5 minutes; then frozen for storage at −80°C.
The blood samples were analyzed via a competitive ELISA technique, rather than the more direct ELISA technique described earlier. Blood samples were diluted 100 fold and then mixed with a known concentration of CB1a antibody (2mg/ml in PBST buffer, including 1% BSA). […] The CB1a concentration recorded on the plate is added to the known CB1a concentration that is washed off, bound to the CB1a antibodies, to get the total CB1a concentration. […]

3T3/3T6 tissue cells = experiment: In vitro toxicity to other normal cells; format: cell-based; settings: data not shown
[8] = tumor-bearing nude mice, 0.012 mmol/kg i.v., n = 6
[9] = tumor-bearing nude mice, 0.012 mmol/kg i.v., 5 injections per week, n = 6
[10] = tumor-bearing nude mice, 0.012 mmol/kg i.v.

With CC(=O)O[C@@]12CO[C@@H]1C[C@H](O)[C@@]1(C)C(=O)[C@H](O)C3=C(C)[C@@H](OC(=O)[C@H](O)[C@@H](NC(=O)OC(C)(C)C)c4ccccc4)C[C@@](O)([C@@H](OC(=O)c4ccccc4)[C@H]21)C3(C)C [docetaxel, reference compound] as the compound, how does the “Patients having grade 3 or 4 neutropenia (haematological toxicity)” value [1] read?
Its value is 86%.

What about the “Selectivity index (SI) of drugs presently on the market” value [2] of the same compound?
Its value is “less than one”.

What about the “Mean tumor volume at week 4” value ([3]; n = 6) of the same compound?
The value was 3,200 mm^3.

What about the “Mean body weight at week 4” value [3, 8] of the same compound?
The value was 25 g.

And the “Mean body weight at week 2 (maximum)” value [3, 9]?
Its value is 27 g.

And the Body weight course [3, 10]?
Its Body weight course is “weight loss”.

And the “Mean body weight at week 5” value [3, 10]?
The value was 21 g.

What about the “Mean tumor weight as % of that in saline treated mice” value (“Mean tumor weight as % of that” below) ([3]; 0.012 mmol/kg i.v., n = 6) of the same compound?
The value was 73%.

With COc1cccc2c1C(=O)c1c(O)c3c(c(O)c1C2=O)C[C@@](O)(C(=O)CO)C[C@@H]3O[C@H]1C[C@H](N)[C@H](O)[C@H](C)O1 [doxorubicin] as the compound, how does the “Selectivity index (SI) of drugs presently on the market” value [2] read?
The value was “less than one”.

Which “Cell number on plate versus plate without CB1a” value (MRC-5 normal cells) does the source give for “H-KWKVFKKIEKKWKVFKKIEKAGPKWKVFKKIEK-OH [CB1a]” here?
Its value is “does not kill these normal cells”.

And the “Cell number on plate versus plate without CB1a” value (NCI-H460 cancer cells [4])?
The value was “significantly less cells”.

What about the “Mean tumor volume as % of that in saline treated mice” value ([5]; 36 days after xenograft, pre-and-post-treatment, n = 6) of the same compound?
Its value is 19.3%.

And the “Mean tumor weight as % of that” value ([5]; day 36, sacrificed, pre-and-post-treatment, n = 6)?
Its value is 9%.

What about the “Tumor lighter than in saline treated mice” value ([5]; day 36, pre-and-post-treatment) of the same compound?
The value was ~90%.

And the “Tumor smaller than in saline treated mice” value ([5]; day 36, pre-and-post-treatment)?
The value was ~80%.

What about the “Deaths during the experiment” value ([5]; nude mice, 3 times in week before xenograft then 5 times per week for 5 weeks, n = 6) of the same compound?
Its value is “None of the mice died”.

What about the “Mean body weight compared with saline treated mice” value ([5]; nude mice, pre-and-post-treatment, n = 6) of the same compound?
Its value is “comparable to that of saline treated mice”.

And the “Killing of normal cells at concentrations that kill lung cancer cells” value (HFL1 cells)?
The value was “do not kill”.

And the “Spheroid formation, post-treatment with CB1a” value (NCI-H460 cancer cells [6]; CB1a 5, 15, 30, 45, 60 µM applied after 3 days incubation, photo after 36 hours)?
The value was “tumor spheroids can still be observed”.

And the “Spheroid formation, pre-treatment with CB1a” value (NCI-H460 cancer cells [6]; CB1a 5-60 µM applied 30 minutes before de-attachment, higher CB1a concentrations)?
Its value is “no spheroids form”.

And the “Time for which a CB1a concentration that can kill cancer cells (≥25 µM or ≥105 µg/ml) endures in rat blood” value [7]?
Its value is “around 25 minutes”.

And the half-life ([7]; male, rat, iv, tail vein blood 5-240 minutes, n = 6)?
The half-life was 16.4 min.

What about the “Mean tumor volume at week 4” value ([3]; n = 6) of the same compound?
Its value is 3,100 mm^3.

What about the “Mean body weight at week 4” value [3, 8] of the same compound?
The value was 30.5 g.

And the “Mean body weight at the start” value [3, 9]?
The value was 25.5 g.

What about the Body weight course [3, 10] of the same compound?
Its Body weight course is “gained weight at the same trajectory as saline treated mice”.

What about the “Mean body weight at week 5” value [3, 10] of the same compound?
Its value is 32 g.

And the “Mean tumor weight as % of that” value ([3]; 0.012 mmol/kg i.v., n = 6)?
Its value is 59%.

And the “Killing of normal cells at concentrations that kill lung cancer cells” value (3T3/3T6 tissue cells)?
The value was “do not kill”.
